Assay results as given in patent US20230077362A1 (CORTEVA AGRISCIENCE LLC, priority 2019, published 2023).
Read-outs that look alike come from different tables or passages of the source.

Columns and labels:
[1] = test system: Beet Armyworm (Spodoptera exigua) ("BAW"), second instar larvae; test: Bioassay on beet armyworm (BAW), 128-well diet tray assay; assay type: in vivo; conditions: for pest or weed control at 50 µg/cm2: Spodoptera exigua; for BAW rating: C = not tested, D = no activity noticed; for BAW (Biological Results, rating): Beet Armyworm (Spodoptera exigua), C = Not Tested
Method in brief: (§1)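 Covered trays were held at 25° C. under a 14:10 light-dark cycle for five to seven days. Percent mortality was then scored in each well, and activity across eight wells was averaged.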

[2] = test system: Cabbage Looper (Trichoplusia ni) ("CL"), second instar larvae; test: Bioassay on cabbage looper (CL), 128-well diet tray assay; assay type: in vivo; conditions: for CL rating: C = not tested, D = no activity noticed; for CL (Biological Results, rating): Cabbage Looper (Trichoplusia ni), C = Not Tested
Method in brief: as §1

[3] = read-out: BAW (Biological Results, rating)
[4] = Trichoplusia ni, read-out: CL (Biological Results, rating)
[5] = Trichoplusia ni, read-out: CL rating

## CCOC(C)c1ccc(C)cc1N1C(=O)CS/C1=N\C(=O)Nc1ccc(-c2ncn(-c3ccc(OC(F)(F)F)cc3)n2)cc1F (stereo not drawn) [Compound J124, (Z)-1-(3-(2-(1-Ethoxyethyl)-5-methylphenyl)-4-oxothiazolidin-2-ylidene)-3-(2-fluoro-4-(1-(4-(trifluoromethoxy)phenyl)-1H-1,2,4-triazol-3-yl)phenyl)urea]
[1]; [3]
  pest or weed control at 50 µg/cm2: 50 to 100%
[2]; [4]
  pest or weed control at 50 µg/cm2: 50 to 100%

## Cc1ccc(COCC(F)(F)F)c(N2C(=O)CS/C2=N\C(=O)Nc2ccc(-c3ncn(-c4cccc(OC(F)(F)F)c4)n3)cc2F)c1 [Compound J705]
[1]; Table ABC, species BAW
  BAW rating: A (50-100)
[2]; Table ABC, species CL
  CL rating: A (50-100)

## CCCNc1ccc(C(C)C)c(N2C(=O)CS/C2=N\C(=O)Nc2ccc(-c3ncn(-c4ccc(OC(F)(F)F)cc4)n3)cc2C)c1 [Compound J128, (Z)-1-(3-(2-Isopropyl-5-(propylamino)phenyl)-4-oxothiazolidin-2-ylidene)-3-(2-methyl-4-(1-(4-(trifluoromethoxy)phenyl)-1H-1,2,4-triazol-3-yl)phenyl)urea]
[1]; [3]
  pest or weed control at 50 µg/cm2: 50 to 100%
[2]; [4]
  pest or weed control at 50 µg/cm2: 50 to 100%

## Cc1ccc(COCC(F)(F)F)c(N2C(=O)CS/C2=N\C(=O)Nc2ccc(-c3ncn(-c4ccc(OC(F)(F)F)cc4)n3)cc2C(F)(F)F)c1 [Compound J165, (Z)-1-(3-(5-Methyl-2-((2,2,2-trifluoroethoxy)methyl)phenyl)-4-oxothiazolidin-2-ylidene)-3-(4-(1-(4-(trifluoromethoxy)phenyl)-1H-1,2,4-triazol-3-yl)-2-(trifluoromethyl)phenyl)urea]
[1]; [3]
  pest or weed control at 50 µg/cm2: 50 to 100%
[2]; [4]
  pest or weed control at 50 µg/cm2: 50 to 100%

## Cc1ccc(OCC(F)(F)F)c(N2C(=O)CS/C2=N\C(=O)Nc2ccc(-c3ncn(-c4ccc(OC(F)(F)F)cc4)n3)cc2Cl)c1 [Compound J40, (Z)-1-(2-Chloro-4-(1-(4-(trifluoromethoxy)phenyl)-1H-1,2,4-triazol-3-yl)phenyl)-3-(3-(5-methyl-2-(2,2,2-trifluoroethoxy)phenyl)-4-oxothiazolidin-2-ylidene)urea]
[1]; [3]
  pest or weed control at 50 µg/cm2: 50 to 100%
[2]; [4]
  pest or weed control at 50 µg/cm2: 50 to 100%

## Cc1ccc(COCC(F)(F)F)c(N2C(=O)CS/C2=N\C(=O)Nc2ccc(-c3n[nH]c(-c4ccccc4)n3)cc2)c1 [Compound J802, (Z)-1-(3-(5-Methyl-2-((2,2,2-trifluoroethoxy)methyl)phenyl)-4-oxothiazolidin-2-ylidene)-3-(4-(5-phenyl-1H-1,2,4-triazol-3-yl)phenyl)urea]
[1]; Table ABC, species BAW, 128-well diet tray assay, second instar larvae
  BAW rating (% control or mortality class): A (50-100)
[2]; Trichoplusia ni, Table ABC, species CL, 128-well diet tray assay, second instar larvae, read-out: CL rating (% control or mortality class)
  mortality at 50 µg/cm2: 50 to 100%

## COc1ccc(-n2cnc(-c3ccc(NC(=O)/N=C4\SCC(=O)N4c4cc(C)ccc4C(C)C)c(F)c3)n2)cc1 [Compound J144, (Z)-1-(2-Fluoro-4-(1-(4-methoxyphenyl)-1H-1,2,4-triazol-3-yl)phenyl)-3-(3-(2-isopropyl-5-methylphenyl)-4-oxothiazolidin-2-ylidene)urea]
[1]; [3]
  pest or weed control at 50 µg/cm2: 50 to 100%
[2]; [4]
  pest or weed control at 50 µg/cm2: 50 to 100%

## O=C(/N=C1\SCC(=O)N1c1cc(Cl)ccc1C(F)(F)F)NCC(F)c1ccc(-c2ncn(-c3ccc(OC(F)(F)F)cc3)n2)cc1 (stereo not drawn) [Compound H6]
[1]; [3]
  pest or weed control at 50 µg/cm2: 50 to 100%
[2]; [4]
  pest or weed control at 50 µg/cm2: 50 to 100%

## Cc1ccc(C(C)C)c(N2C(=O)CS/C2=N\C(=O)Nc2ccc(-c3cn(-c4ccc(S(=O)(=O)C(F)(F)F)cc4)cn3)cc2F)c1 [Compound J651, (Z)-1-(2-Fluoro-4-(1-(4-((trifluoromethyl)sulfonyl)phenyl)-1H-imidazol-4-yl)phenyl)-3-(3-(2-isopropyl-5-methylphenyl)-4-oxothiazolidin-2-ylidene)urea]
[1]; read-out: BAW rating
  pest or weed control at 50 µg/cm2: 50 to 100%
[2]; [5]
  pest or weed control at 50 µg/cm2: 50 to 100%

## CC(C)c1ccc(N(C)C)cc1N1C(=O)CS/C1=N\C(=O)Nc1ccc(-c2ncn(-c3ccc(C(F)F)cn3)n2)cc1F [Compound J347]
[1]
  BAW (Biological Results, rating): A (50-100)
[2]
  CL (Biological Results, rating): A (50-100)

## COC(C)c1ccc(C#N)cc1N1C(=O)CS/C1=N\C(=O)Nc1ccc(-c2cn(-c3ccc(S(F)(F)(F)(F)F)cc3)cn2)cc1F (stereo not drawn) [Compound J606, (Z)-1-(3-(5-Cyano-2-(1-methoxyethyl)phenyl)-4-oxothiazolidin-2-ylidene)-3-(2-fluoro-4-(1-(4-(pentafluoro-λ^6-sulfaneyl)phenyl)-1H-imidazol-4-yl)phenyl)urea]
[1]; read-out: BAW rating
  pest or weed control at 50 µg/cm2: 50 to 100%
[2]; [5]
  pest or weed control at 50 µg/cm2: 50 to 100%

## CCCc1ccc(C)cc1N1C(=O)CS/C1=N\C(=O)Nc1ccc(-c2ncn(-c3ccc(C(F)(F)F)cc3)n2)cc1C [Compound J15, (Z)-1-(3-(5-Methyl-2-propylphenyl)-4-oxothiazolidin-2-ylidene)-3-(2-methyl-4-(1-(4-(trifluoromethyl)phenyl)-1H-1,2,4-triazol-3-yl)phenyl)urea]
[1]; [3]
  pest or weed control at 50 µg/cm2: 50 to 100%
[2]; [4]
  pest or weed control at 50 µg/cm2: 50 to 100%

## CC(C)c1ccc(N(C)C)cc1N1C(=O)CS/C1=N\C(=O)Nc1ccc(-c2ncn(-c3cccc(OC(F)(F)F)c3)n2)cc1F [Compound J155, (Z)-1-(3-(5-(Dimethylamino)-2-isopropylphenyl)-4-oxothiazolidin-2-ylidene)-3-(2-fluoro-4-(1-(3-(trifluoromethoxy)phenyl)-1H-1,2,4-triazol-3-yl)phenyl)urea]
[1]; [3]
  pest or weed control at 50 µg/cm2: 50 to 100%
[2]; [4]
  pest or weed control at 50 µg/cm2: 50 to 100%

## Cc1ccc(OCCC(F)(F)F)c(N2C(=O)CS/C2=N\C(=O)Nc2ccc(-c3ncn(-c4ccc(OC(F)(F)F)cc4)n3)cc2C(C)C)c1 [Compound J93, (Z)-1-(2-Isopropyl-4-(1-(4-(trifluoromethoxy)phenyl)-1H-1,2,4-triazol-3-yl)phenyl)-3-(3-(5-methyl-2-(3,3,3-trifluoropropoxy)phenyl)-4-oxothiazolidin-2-ylidene)urea]
[1]; [3]
  pest or weed control at 50 µg/cm2: 50 to 100%
[2]; [4]
  pest or weed control at 50 µg/cm2: 50 to 100%

## COC(C)c1ccc(C)cc1N1C(=O)CS/C1=N\C(=O)Nc1ccc(-c2ncn(-c3ccc(S(F)(F)(F)(F)F)cc3)n2)cc1F (stereo not drawn) [Compound J423]
[1]; Table ABC, species BAW
  BAW rating: A (50-100)
[2]; Table ABC, species CL
  CL rating: A (50-100)

## O=C(/N=C1\SCC(=O)N1c1ccc(Cl)cc1COCc1ccccc1)Nc1ccc(-c2ncn(-c3ccc(OC(F)(F)F)cc3)n2)cc1F [Compound J636, (Z)-1-(3-(2-((Benzyloxy)methyl)-4-chlorophenyl)-4-oxothiazolidin-2-ylidene)-3-(2-fluoro-4-(1-(4-(trifluoromethoxy)phenyl)-1H-1,2,4-triazol-3-yl)phenyl)urea]
[1]; read-out: BAW rating
  pest or weed control at 50 µg/cm2: 50 to 100%
[2]; [5]
  pest or weed control at 50 µg/cm2: 0 to 50%

## Cc1ccc(Cc2ccc(F)cc2)c(N2C(=O)CS/C2=N\C(=O)Nc2ccc(-c3ncn(-c4ccc(S(F)(F)(F)(F)F)cc4)n3)cc2C#N)c1 [Compound J683, (Z)-1-(2-Cyano-4-(1-(4-(pentafluoro-λ^6-sulfaneyl)phenyl)-1H-1,2,4-triazol-3-yl)phenyl)-3-(3-(2-(4-fluorobenzyl)-5-methylphenyl)-4-oxothiazolidin-2-ylidene)urea]
[1]; read-out: BAW rating
  pest or weed control at 50 µg/cm2: 50 to 100%
[2]; [5]
  pest or weed control at 50 µg/cm2: 50 to 100%

## CC(C)c1cc(F)c(N(C)C)cc1N1C(=O)CS/C1=N\C(=O)Nc1ccc(-c2ncn(-c3ccc([S+]([O-])C(F)(F)F)cc3)n2)cc1F (stereo not drawn) [Compound J384, (Z)-1-(3-(5-(Dimethylamino)-4-fluoro-2-isopropylphenyl)-4-oxothiazolidin-2-ylidene)-3-(2-fluoro-4-(1-(4-((trifluoromethyl)sulfinyl)phenyl)-1H-1,2,4-triazol-3-yl)phenyl)urea]
[1]; read-out: BAW rating
  pest or weed control at 50 µg/cm2: 50 to 100%
[2]; [5]
  pest or weed control at 50 µg/cm2: 50 to 100%

## Cc1ccc(OCCC(F)(F)F)c(N2C(=O)CS/C2=N\C(=O)Nc2ccc(-c3cn(-c4ccc(S(F)(F)(F)(F)F)cc4)cn3)cc2F)c1 [Compound J597, (Z)-1-(2-Fluoro-4-(1-(4-(pentafluoro-λ^6-sulfaneyl)phenyl)-1H-imidazol-4-yl)phenyl)-3-(3-(5-methyl-2-(3,3,3-trifluoropropoxy)phenyl)-4-oxothiazolidin-2-ylidene)urea]
[1]; read-out: BAW rating
  pest or weed control at 50 µg/cm2: 50 to 100%
[2]; [5]
  pest or weed control at 50 µg/cm2: 50 to 100%

## CCCc1ccc(C)cc1N1C(=O)CS/C1=N\C(=O)Nc1ccc(-c2ncn(-c3ccc(N(C(=O)OC)C(F)(F)F)cc3)n2)cc1C [Compound J784]
[1]; Table ABC, species BAW
  BAW rating: A (50-100)
[2]; Table ABC, species CL
  CL rating: A (50-100)

## COc1ccc(C(C)C)c(N2C(=O)CS/C2=N\C(=O)Nc2ccc(-c3ncn(-c4ccc(OC(F)(F)F)cc4)n3)c(C)c2)c1 [Compound J22, (Z)-1-(3-(2-Isopropyl-5-methoxyphenyl)-4-oxothiazolidin-2-ylidene)-3-(3-methyl-4-(1-(4-(trifluoromethoxy)phenyl)-1H-1,2,4-triazol-3-yl)phenyl)urea]
[1]; [3]
  pest or weed control at 50 µg/cm2: 50 to 100%
[2]; [4]
  pest or weed control at 50 µg/cm2: 50 to 100%

## Cc1ccc(COCC(F)(F)F)c(N2C(=O)CS/C2=N\C(=O)Nc2ccc(-c3ncn(-c4ccc(C(F)F)cn4)n3)cc2F)c1 [Compound J346]
[1]
  BAW (Biological Results, rating): A (50-100)
[2]
  CL (Biological Results, rating): A (50-100)

## CCOCc1ccc(C)cc1N1C(=O)CS/C1=N\C(=O)Nc1ccc(-c2ncn(-c3ccc(SC(F)(F)F)cc3)n2)cc1C [Compound J205, (Z)-1-(3-(2-(Ethoxymethyl)-5-methylphenyl)-4-oxothiazolidin-2-ylidene)-3-(2-methyl-4-(1-(4-((trifluoromethyl)thio)phenyl)-1H-1,2,4-triazol-3-yl)phenyl)urea]
[1]; [3]
  pest or weed control at 50 µg/cm2: 50 to 100%
[2]; [4]
  pest or weed control at 50 µg/cm2: 50 to 100%

## COC(C)c1ccc(C)cc1N1C(=O)CS/C1=N\C(=O)Nc1ccc(-n2cnc(-c3ccc(OC(F)(F)F)cc3)n2)cc1C (stereo not drawn) [Compound J467, (Z)-1-(3-(2-(1-Methoxyethyl)-5-methylphenyl)-4-oxothiazolidin-2-ylidene)-3-(2-methyl-4-(3-(4-(trifluoromethoxy)phenyl)-1H-1,2,4-triazol-1-yl)phenyl)urea]
[1]; read-out: BAW rating
  pest or weed control at 50 µg/cm2: 50 to 100%
[2]; [5]
  pest or weed control at 50 µg/cm2: 50 to 100%
